{"source": "ChEMBL document CHEMBL1240489", "about": "“Discovery of N-{1-[3-(3-oxo-2,3-dihydrobenzo[1,4]oxazin-4-yl)propyl]piperidin-4-yl}-2-phenylacetamide (Lu AE51090): an allosteric muscarinic M1 receptor agonist with unprecedented selectivity and procognitive potential” (J Med Chem, 2010)", "key": {"[1]": {"molecular_target": "T1, Muscarinic acetylcholine receptor M2 (Homo sapiens, UniProt P08172)", "T1 sequence (P08172 whole entry)": "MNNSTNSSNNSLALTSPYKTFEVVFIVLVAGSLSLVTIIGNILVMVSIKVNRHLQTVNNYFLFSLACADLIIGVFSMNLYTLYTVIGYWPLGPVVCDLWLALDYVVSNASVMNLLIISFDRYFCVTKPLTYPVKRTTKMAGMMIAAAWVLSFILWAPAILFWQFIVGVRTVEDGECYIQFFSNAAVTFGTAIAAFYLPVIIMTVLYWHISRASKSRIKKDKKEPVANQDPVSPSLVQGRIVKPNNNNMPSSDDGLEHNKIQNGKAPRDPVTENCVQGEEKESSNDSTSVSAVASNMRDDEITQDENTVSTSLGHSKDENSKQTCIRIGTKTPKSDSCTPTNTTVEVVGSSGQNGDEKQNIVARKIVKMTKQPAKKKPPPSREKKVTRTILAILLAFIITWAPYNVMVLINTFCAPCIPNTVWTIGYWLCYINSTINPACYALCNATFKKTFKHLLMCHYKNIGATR", "experiment": "Displacement of [3H]-AFDX-384 from human muscarinic M2 receptor expressed in CHO-K1 cells", "assay_type": "cell-based"}, "[2]": {"molecular_target": "Adenosine receptor A3 (Homo sapiens, UniProt P0DMS8)", "sequence (P0DMS8 whole entry)": "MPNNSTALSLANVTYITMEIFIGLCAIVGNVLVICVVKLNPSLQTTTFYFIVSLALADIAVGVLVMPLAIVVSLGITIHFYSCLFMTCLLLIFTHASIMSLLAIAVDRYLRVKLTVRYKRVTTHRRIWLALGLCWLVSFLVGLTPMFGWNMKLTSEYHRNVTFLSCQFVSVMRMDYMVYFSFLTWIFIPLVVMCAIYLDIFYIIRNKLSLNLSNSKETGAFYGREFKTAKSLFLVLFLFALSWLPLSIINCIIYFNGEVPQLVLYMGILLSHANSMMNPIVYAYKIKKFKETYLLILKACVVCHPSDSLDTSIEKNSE", "experiment": "Binding affinity to human adenosine A3 receptor by radioligand displacement assay"}, "[3]": {"molecular_target": "5-hydroxytryptamine receptor 2A (Homo sapiens, UniProt P28223)", "experiment": "Binding affinity to human 5-HT2A agonist site receptor by radioligand displacement assay"}, "[4]": {"experiment": "Volume of distribution at steady state in rat plasma at 1 mg/kg, iv and 2 mg/kg, po", "assay_type": "ADME, organism-based", "conditions": "read-out: Vdss"}, "[5]": {"molecular_target": "T2, Muscarinic acetylcholine receptor M1 (Homo sapiens) (UniProt P11229)", "T2 sequence (whole entry)": "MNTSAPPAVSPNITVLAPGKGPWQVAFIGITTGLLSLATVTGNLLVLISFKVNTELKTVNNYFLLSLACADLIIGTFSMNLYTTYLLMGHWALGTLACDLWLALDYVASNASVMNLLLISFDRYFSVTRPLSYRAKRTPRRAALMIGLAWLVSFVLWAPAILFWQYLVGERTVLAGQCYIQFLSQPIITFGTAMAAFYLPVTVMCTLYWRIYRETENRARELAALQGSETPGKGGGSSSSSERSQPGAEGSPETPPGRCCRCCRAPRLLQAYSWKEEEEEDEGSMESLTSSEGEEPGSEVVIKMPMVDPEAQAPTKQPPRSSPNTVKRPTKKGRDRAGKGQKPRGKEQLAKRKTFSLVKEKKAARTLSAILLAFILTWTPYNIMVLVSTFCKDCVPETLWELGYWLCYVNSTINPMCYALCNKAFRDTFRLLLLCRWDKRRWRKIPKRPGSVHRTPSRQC", "experiment": "Agonist activity at human muscarinic M1 receptor expressed in CHO-K1 cells assessed as increase of acetylcholine-induced calcium flux by FLIPR assay in presence of atropine", "assay_type": "functional, cell-based"}, "[6]": {"molecular_target": "Substance-K receptor (Homo sapiens, UniProt P21452)", "sequence (P21452 whole entry)": "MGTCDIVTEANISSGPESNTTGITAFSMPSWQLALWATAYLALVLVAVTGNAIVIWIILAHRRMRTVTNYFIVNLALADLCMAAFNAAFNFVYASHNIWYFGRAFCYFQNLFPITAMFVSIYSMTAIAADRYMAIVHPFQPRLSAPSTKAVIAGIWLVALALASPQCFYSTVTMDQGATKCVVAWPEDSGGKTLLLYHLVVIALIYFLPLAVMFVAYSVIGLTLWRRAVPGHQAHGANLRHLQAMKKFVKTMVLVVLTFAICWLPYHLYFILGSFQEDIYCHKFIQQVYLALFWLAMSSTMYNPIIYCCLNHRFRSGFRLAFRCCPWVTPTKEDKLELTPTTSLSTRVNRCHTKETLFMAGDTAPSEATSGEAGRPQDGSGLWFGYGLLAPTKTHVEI", "experiment": "Binding affinity to human NK2 receptor by radioligand displacement assay"}, "[7]": {"molecular_target": "T3, Muscarinic acetylcholine receptor M5 (Homo sapiens) (UniProt P08912)", "T3 sequence (whole entry)": "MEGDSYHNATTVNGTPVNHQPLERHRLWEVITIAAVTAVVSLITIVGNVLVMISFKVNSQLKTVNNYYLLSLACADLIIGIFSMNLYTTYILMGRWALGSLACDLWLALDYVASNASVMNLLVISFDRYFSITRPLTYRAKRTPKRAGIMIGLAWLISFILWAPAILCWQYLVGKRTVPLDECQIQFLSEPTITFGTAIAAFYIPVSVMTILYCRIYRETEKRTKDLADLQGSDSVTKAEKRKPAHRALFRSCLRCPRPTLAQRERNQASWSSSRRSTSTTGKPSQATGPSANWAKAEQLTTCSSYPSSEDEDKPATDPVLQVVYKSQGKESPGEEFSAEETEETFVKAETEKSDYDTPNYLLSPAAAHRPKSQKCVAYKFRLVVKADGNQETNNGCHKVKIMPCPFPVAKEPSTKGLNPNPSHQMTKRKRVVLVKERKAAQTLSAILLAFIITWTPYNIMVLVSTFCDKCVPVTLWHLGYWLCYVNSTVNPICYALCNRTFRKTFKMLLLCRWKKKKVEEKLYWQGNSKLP", "experiment": "Agonist activity at human muscarinic M5 receptor expressed in BHK-21 cells assessed as increase of acetylcholine-induced calcium flux at 10 uM by FLIPR assay relative to acetylcholine", "assay_type": "functional, cell-based"}, "[8]": {"molecular_target": "Beta-2 adrenergic receptor (Homo sapiens, UniProt P07550)", "experiment": "Binding affinity to adrenergic beta2 receptor by radioligand displacement assay"}, "[9]": {"molecular_target": "Adenosine receptor A1 (Homo sapiens, UniProt P30542)", "sequence (P30542 whole entry)": "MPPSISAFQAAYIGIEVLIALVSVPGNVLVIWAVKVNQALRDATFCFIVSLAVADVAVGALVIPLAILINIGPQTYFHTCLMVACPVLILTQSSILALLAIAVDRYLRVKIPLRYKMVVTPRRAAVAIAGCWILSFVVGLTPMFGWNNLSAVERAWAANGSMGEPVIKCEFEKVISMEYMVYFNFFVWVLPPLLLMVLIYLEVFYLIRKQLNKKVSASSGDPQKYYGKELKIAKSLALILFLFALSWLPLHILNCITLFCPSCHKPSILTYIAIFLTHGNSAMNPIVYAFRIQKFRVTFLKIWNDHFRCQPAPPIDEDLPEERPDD", "experiment": "Binding affinity to human adenosine A1 receptor by radioligand displacement assay"}, "[10]": {"molecular_target": "Cannabinoid receptor 1 (Homo sapiens, UniProt P21554)", "experiment": "Binding affinity to human CB1 receptor by radioligand displacement assay"}, "[11]": {"experiment": "Terminal half life in rat plasma at 1 mg/kg, iv and 2 mg/kg, po", "assay_type": "ADME, organism-based"}, "[12]": {"experiment": "Ratio of brain to plasma AUC in Sprague-Dawley rat at 10 mg/kg, sc", "assay_type": "ADME, organism-based", "set-up": "dose 10 mg/kg, route subcutaneous"}, "[13]": {"molecular_target": "T4, Muscarinic acetylcholine receptor M1 (Homo sapiens, UniProt P11229)", "T4 sequence (P11229 whole entry)": "T2 sequence (whole entry)", "experiment": "Binding affinity to human muscarinic M1 receptor by radioligand displacement assay"}, "[14]": {"molecular_target": "Nischarin (Homo sapiens, UniProt Q9Y2I1)", "sequence (Q9Y2I1 whole entry)": "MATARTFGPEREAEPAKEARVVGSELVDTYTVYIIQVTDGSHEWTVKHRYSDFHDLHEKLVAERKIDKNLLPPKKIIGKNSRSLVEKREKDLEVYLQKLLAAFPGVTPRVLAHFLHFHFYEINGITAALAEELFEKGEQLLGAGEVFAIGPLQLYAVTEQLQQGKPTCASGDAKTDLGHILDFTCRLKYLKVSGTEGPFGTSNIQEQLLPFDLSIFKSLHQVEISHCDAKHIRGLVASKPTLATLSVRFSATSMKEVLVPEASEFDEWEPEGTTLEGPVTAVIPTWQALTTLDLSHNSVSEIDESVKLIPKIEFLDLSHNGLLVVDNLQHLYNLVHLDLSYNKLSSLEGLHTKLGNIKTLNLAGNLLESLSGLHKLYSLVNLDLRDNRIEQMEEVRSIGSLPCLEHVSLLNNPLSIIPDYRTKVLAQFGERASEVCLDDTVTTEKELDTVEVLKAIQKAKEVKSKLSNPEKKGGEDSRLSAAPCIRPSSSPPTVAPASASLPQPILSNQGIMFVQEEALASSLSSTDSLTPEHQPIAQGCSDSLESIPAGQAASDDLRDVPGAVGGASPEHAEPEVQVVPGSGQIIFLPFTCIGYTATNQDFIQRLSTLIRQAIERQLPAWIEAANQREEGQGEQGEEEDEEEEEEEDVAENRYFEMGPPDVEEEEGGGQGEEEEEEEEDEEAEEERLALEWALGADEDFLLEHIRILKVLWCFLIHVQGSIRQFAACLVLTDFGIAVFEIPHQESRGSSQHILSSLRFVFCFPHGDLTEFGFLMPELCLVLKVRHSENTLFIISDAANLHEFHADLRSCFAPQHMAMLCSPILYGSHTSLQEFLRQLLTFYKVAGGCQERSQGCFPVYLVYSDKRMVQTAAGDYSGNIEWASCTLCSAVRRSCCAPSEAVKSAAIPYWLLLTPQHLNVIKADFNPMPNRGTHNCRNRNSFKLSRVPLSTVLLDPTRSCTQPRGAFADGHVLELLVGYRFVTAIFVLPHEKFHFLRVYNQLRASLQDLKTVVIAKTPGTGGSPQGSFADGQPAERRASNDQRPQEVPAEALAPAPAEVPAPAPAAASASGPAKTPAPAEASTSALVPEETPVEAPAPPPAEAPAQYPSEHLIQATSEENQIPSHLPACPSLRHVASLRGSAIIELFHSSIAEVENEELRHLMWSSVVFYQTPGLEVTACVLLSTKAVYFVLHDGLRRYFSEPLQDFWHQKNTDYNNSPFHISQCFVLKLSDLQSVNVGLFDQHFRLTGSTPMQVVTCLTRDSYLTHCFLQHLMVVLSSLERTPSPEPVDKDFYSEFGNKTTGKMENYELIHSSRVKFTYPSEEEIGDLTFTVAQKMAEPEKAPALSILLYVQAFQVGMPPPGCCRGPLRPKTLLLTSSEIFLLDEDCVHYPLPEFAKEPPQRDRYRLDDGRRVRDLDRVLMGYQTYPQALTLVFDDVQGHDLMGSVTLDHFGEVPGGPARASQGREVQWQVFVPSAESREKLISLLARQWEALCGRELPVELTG", "experiment": "Binding affinity to I1 receptor by radioligand displacement assay"}, "[15]": {"molecular_target": "T5, Muscarinic acetylcholine receptor M5 (Homo sapiens, UniProt P08912)", "T5 sequence (P08912 whole entry)": "T3 sequence (whole entry)", "experiment": "Binding affinity to human muscarinic M5 receptor by radioligand displacement assay"}, "[16]": {"molecular_target": "Acetylcholinesterase (Homo sapiens, UniProt P22303)", "experiment": "Binding affinity to human acetylcholine esterase by radioligand displacement assay"}, "[17]": {"molecular_target": "D(3) dopamine receptor (Homo sapiens, UniProt P35462)", "sequence (P35462 whole entry)": "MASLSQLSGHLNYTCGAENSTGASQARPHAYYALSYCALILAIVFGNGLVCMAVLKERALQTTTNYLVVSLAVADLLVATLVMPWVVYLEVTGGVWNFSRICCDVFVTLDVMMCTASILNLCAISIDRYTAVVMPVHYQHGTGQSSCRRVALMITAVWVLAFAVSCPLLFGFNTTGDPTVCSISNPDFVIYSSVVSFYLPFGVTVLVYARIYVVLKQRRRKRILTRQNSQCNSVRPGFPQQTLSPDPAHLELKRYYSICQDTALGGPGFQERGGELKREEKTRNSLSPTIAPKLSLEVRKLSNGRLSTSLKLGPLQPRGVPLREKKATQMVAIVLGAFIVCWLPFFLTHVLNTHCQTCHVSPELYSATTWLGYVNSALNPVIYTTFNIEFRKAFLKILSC", "experiment": "Binding affinity to human dopamine D3 receptor by radioligand displacement assay"}, "[18]": {"molecular_target": "Beta-1 adrenergic receptor (Homo sapiens, UniProt P08588)", "sequence (P08588 whole entry)": "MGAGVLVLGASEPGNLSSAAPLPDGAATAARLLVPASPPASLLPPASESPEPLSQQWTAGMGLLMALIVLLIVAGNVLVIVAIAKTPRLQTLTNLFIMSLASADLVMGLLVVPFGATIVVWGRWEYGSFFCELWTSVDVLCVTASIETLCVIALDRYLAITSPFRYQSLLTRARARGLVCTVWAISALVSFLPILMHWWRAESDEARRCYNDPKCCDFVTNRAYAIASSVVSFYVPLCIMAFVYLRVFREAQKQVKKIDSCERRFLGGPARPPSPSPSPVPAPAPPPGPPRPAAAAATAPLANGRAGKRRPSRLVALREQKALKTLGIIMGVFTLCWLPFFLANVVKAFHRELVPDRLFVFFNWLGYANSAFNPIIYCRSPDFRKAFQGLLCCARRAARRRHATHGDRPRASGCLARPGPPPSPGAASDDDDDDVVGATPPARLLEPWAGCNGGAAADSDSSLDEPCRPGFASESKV", "experiment": "Binding affinity to human adrenergic beta-1 receptor by radioligand displacement assay"}, "[19]": {"molecular_target": "5-hydroxytryptamine receptor 2C (Homo sapiens, UniProt P28335)", "sequence (P28335 whole entry)": "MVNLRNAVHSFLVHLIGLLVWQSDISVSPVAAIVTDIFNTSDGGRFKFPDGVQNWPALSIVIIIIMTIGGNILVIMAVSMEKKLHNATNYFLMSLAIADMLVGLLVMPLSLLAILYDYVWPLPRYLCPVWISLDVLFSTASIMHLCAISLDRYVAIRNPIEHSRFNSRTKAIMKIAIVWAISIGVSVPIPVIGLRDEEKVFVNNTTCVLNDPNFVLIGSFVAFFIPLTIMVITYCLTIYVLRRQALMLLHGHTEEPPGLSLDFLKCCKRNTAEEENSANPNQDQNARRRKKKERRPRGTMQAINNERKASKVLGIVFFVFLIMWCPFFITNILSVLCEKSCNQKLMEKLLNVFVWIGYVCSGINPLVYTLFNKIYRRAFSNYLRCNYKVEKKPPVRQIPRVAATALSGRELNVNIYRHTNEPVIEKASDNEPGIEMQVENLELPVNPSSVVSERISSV", "experiment": "Binding affinity to human 5HT2C receptor agonist site by radioligand displacement assay"}, "[20]": {"molecular_target": "Histamine H2 receptor (Homo sapiens, UniProt P25021)", "sequence (P25021 whole entry)": "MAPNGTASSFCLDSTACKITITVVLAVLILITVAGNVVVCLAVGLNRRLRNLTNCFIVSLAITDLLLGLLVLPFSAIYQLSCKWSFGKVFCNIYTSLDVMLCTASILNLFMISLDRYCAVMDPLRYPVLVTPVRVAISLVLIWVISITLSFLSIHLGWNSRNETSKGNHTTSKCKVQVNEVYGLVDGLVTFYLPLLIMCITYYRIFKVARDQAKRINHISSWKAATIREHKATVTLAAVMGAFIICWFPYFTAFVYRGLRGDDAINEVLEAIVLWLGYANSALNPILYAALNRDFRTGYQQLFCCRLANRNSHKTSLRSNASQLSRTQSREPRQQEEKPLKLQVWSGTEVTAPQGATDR", "experiment": "Binding affinity to human histamine H2 receptor by radioligand displacement assay"}, "[21]": {"molecular_target": "Kappa-type opioid receptor (Homo sapiens, UniProt P41145)", "sequence (P41145 whole entry)": "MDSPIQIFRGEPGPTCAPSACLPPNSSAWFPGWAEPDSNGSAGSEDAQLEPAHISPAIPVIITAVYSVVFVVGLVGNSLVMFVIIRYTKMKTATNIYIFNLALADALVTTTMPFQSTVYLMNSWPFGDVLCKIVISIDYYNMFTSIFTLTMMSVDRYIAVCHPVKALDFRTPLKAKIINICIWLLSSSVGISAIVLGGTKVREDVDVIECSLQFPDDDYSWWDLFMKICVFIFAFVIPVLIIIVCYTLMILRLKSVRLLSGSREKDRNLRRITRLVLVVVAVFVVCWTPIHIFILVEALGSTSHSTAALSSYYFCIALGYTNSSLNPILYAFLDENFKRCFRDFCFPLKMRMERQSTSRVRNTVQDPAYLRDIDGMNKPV", "experiment": "Binding affinity to kappa opioid receptor by radioligand displacement assay"}, "[22]": {"experiment": "Binding affinity to human Ca2+ channel diltiazem site by radioligand displacement assay"}, "[23]": {"experiment": "Binding affinity to GABA transporter by radioligand displacement assay"}}, "note": "Activity calls are given as the source filed them. No cut-off for these calls is given here.", "data": [{"molecule": "O=C(Cc1ccccc1)NC1CCN(CCCN2C(=O)COc3ccccc32)CC1", "values": [{"measurement": "Ki", "setting": "[1]", "result": 2200, "unit": "nM"}, {"measurement": "Ki", "setting": "[2]", "result": "≥ 1000", "unit": "nM"}, {"measurement": "Ki", "setting": "[3]", "result": "≥ 1000", "unit": "nM"}, {"measurement": "Vd", "setting": "[4]", "result": 4.8, "unit": "L/kg"}, {"measurement": "Activity", "setting": "[5]", "result": "inactive"}, {"measurement": "Ki", "setting": "[6]", "result": "≥ 1000", "unit": "nM"}, {"measurement": "Emax", "setting": "[7]", "result": 1, "unit": "%"}, {"measurement": "Ki", "setting": "[8]", "result": "≥ 1000", "unit": "nM"}, {"measurement": "Ki", "setting": "[9]", "result": "≥ 1000", "unit": "nM"}, {"measurement": "Ki", "setting": "[10]", "result": "≥ 1000", "unit": "nM"}, {"measurement": "half-life", "setting": "[11]", "result": 48, "unit": "min"}, {"measurement": "Kp", "setting": "[12]", "result": 0.2}, {"measurement": "Ki", "setting": "[13]", "result": "≥ 1000", "unit": "nM"}, {"measurement": "Ki", "setting": "[14]", "result": "≥ 1000", "unit": "nM"}, {"measurement": "Ki", "setting": "[15]", "result": "≥ 1000", "unit": "nM"}, {"measurement": "Ki", "setting": "[16]", "result": "≥ 1000", "unit": "nM"}, {"measurement": "Ki", "setting": "[17]", "result": "≥ 1000", "unit": "nM"}, {"measurement": "Ki", "setting": "[18]", "result": "≥ 1000", "unit": "nM"}, {"measurement": "Ki", "setting": "[19]", "result": "≥ 1000", "unit": "nM"}, {"measurement": "Ki", "setting": "[20]", "result": "≥ 1000", "unit": "nM"}, {"measurement": "Ki", "setting": "[21]", "result": "≥ 1000", "unit": "nM"}, {"measurement": "Ki", "setting": "[22]", "result": "≥ 1000", "unit": "nM"}, {"measurement": "Ki", "setting": "[23]", "result": "≥ 1000", "unit": "nM"}]}]}
